Assays:
Format in all cases: in vivo
[1] = test system: rice (Oryza sativa); assay: Test B flood test
Summary of the method: (§1)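 Plants were grown to the 2-leaf stage before treatment with test chemical, then held in a greenhouse for twelve to sixteen days. Injury was visually rated against untreated controls on a 0–10 scale, where 0 is no effect and 10 is complete control.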

[2] = test system: duck salad (Heteranthera limosa); assay: Test B flood test
Summary of the method: as §1

[3] = test system: smallflower flatsedge (Cyperus difformis); assay: Test B flood test
Summary of the method: as §1

[4] = test system: bamyardgrass (Echinochloa crus-galli); assay: Test B flood test
Summary of the method: as §1

[5] = test system: crabgrass (Digitaria sanguinalis); assay: Test B pre-/postemergence; design: key: 0 is no effect; 10 is complete control; conditions: for Crabgrass plant response rating: Preemergence
Summary of the method: (§2)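 Seeds were planted and sprayed preemergence, while plants at 2 to 18 cm (1- to 4-leaf stage) were sprayed postemergence at the same time, with test chemical in a non-phytotoxic solvent mixture containing surfactant. After twelve to sixteen days in a greenhouse, injury was rated visually against untreated controls on a 0–10 scale.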

[6] = test system: bedstraw (Galium aparine); assay: Test B pre-/postemergence; design: key: 0 is no effect; 10 is complete control; conditions: for Bedstraw plant response rating: Preemergence
Summary of the method: as §2

[7] = test system: purple nutsedge (Cyperus rotundus); assay: Test B pre-/postemergence; design: key: 0 is no effect; 10 is complete control
Summary of the method: as §2

[8] = test system: sugar beet (Beta vulgaris); assay: Test B pre-/postemergence; design: key: 0 is no effect; 10 is complete control
Summary of the method: as §2

[9] = test system: rape (Brassica napus); assay: Test B pre-/postemergence; design: key: 0 is no effect; 10 is complete control
Summary of the method: as §2

[10] = test system: velvetleaf (Abutilon theophrasti); assay: Test B pre-/postemergence; design: key: 0 is no effect; 10 is complete control
Summary of the method: as §2

[11] = test system: wheat (Triticum aestivum); assay: Test B pre-/postemergence; design: key: 0 is no effect; 10 is complete control
Summary of the method: as §2

[12] = test system: soybean (Glycine max); assay: Test B pre-/postemergence; design: key: 0 is no effect; 10 is complete control
Summary of the method: as §2

[13] = test system: corn (Zea mays); assay: Test B pre-/postemergence; design: key: 0 is no effect; 10 is complete control; conditions: for Corn plant response rating: Preemergence
Summary of the method: as §2

[14] = test system: wild oat (Avena fatua); assay: Test B pre-/postemergence; design: key: 0 is no effect; 10 is complete control
Summary of the method: as §2

[15] = test system: giant foxtail (Setaria faberii); assay: Test B pre-/postemergence; design: key: 0 is no effect; 10 is complete control
Summary of the method: as §2

[16] = Rate 62 g/ha, Postemergence (flood test)
[17] = Rate 125 g/ha, Postemergence section (flood test species)
[18] = Rate 250 g/ha, Postemergence (flood test species)
[19] = Rate 125 g/ha, Postemergence, flood test
[20] = Rate 250 g/ha, Postemergence (so in the source)

Cc1cnc(-n2cnc(C(F)(F)F)n2)nc1Cc1cccc(C(F)(F)F)c1 [Compound 43]
Plant response rating, Rice [1, 16]: 4
Rice plant response rating [1, 17]: 6
Plant response rating, Rice [1, 18]: 7
Plant response rating, Ducksalad [2, 16]: 8
Plant response rating, Ducksalad [2, 19]: 9
Plant response rating, Ducksalad [2, 18]: 9
Plant response rating, S. Flatsedge [3, 16]: 9
S. Flatsedge plant response rating [3, 17]: 9
Plant response rating, S. Flatsedge [3, 18]: 9
Plant response rating, Barnyardgrass [4, 16]: 4
Plant response rating, Barnyardgrass [4, 19]: 4
Plant response rating, Barnyardgrass [4, 18]: 5
Plant response rating, Crabgrass ([5]; Rate 62 g/ha, Postemergence): 7
Crabgrass plant response rating ([5]; Rate 62 g/ha): 8
Plant response rating, Crabgrass ([5]; Rate 125 g/ha, Postemergence): 8
Crabgrass plant response rating ([5]; Rate 125 g/ha): 10
Plant response rating, Crabgrass ([5]; Rate 250 g/ha, Postemergence): 10
Plant response rating, Crabgrass [5, 20]: 10
Plant response rating, Bedstraw ([6]; Rate 62 g/ha, Postemergence): 9
Bedstraw plant response rating ([6]; Rate 62 g/ha): 8
Plant response rating, Bedstraw ([6]; Rate 125 g/ha, Postemergence): 10
Bedstraw plant response rating ([6]; Rate 125 g/ha): 9
Plant response rating, Bedstraw ([6]; Rate 250 g/ha, Postemergence): 10
Plant response rating, Bedstraw [6, 20]: 10
Plant response rating, Nutsedge ([7]; Rate 62 g/ha, Postemergence): 0
Nutsedge plant response rating ([7]; Rate 62 g/ha, Preemergence): 0
Nutsedge plant response rating ([7]; Rate 125 g/ha, Postemergence): 2
Nutsedge plant response rating ([7]; Rate 125 g/ha, Preemergence): 0
Plant response rating, Nutsedge ([7]; Rate 250 g/ha, Postemergence): 3
Plant response rating, Sugarbeets ([8]; Rate 62 g/ha, Postemergence): 10
Sugarbeets plant response rating ([8]; Rate 62 g/ha, Preemergence): 10
Sugarbeets plant response rating ([8]; Rate 125 g/ha, Postemergence): 10
Plant response rating, Sugarbeets ([8]; Rate 125 g/ha, Preemergence): 10
Plant response rating, Sugarbeets ([8]; Rate 250 g/ha, Postemergence): 10
Plant response rating, Sugarbeets [8, 20]: 10
Plant response rating, Rape ([9]; Rate 62 g/ha, Postemergence): 9
Rape plant response rating ([9]; Rate 62 g/ha, Preemergence): 8
Rape plant response rating ([9]; Rate 125 g/ha, Postemergence): 10
Rape plant response rating ([9]; Rate 125 g/ha, Preemergence): 10
Plant response rating, Rape ([9]; Rate 250 g/ha, Postemergence): 10
Plant response rating, Rape [9, 20]: 10
Plant response rating, Velvetleaf ([10]; Rate 62 g/ha, Postemergence): 8
Velvetleaf plant response rating ([10]; Rate 62 g/ha, Preemergence): 10
Velvetleaf plant response rating ([10]; Rate 125 g/ha, Postemergence): 9
Plant response rating, Velvetleaf ([10]; Rate 125 g/ha, Preemergence): 10
Plant response rating, Velvetleaf ([10]; Rate 250 g/ha, Postemergence): 9
Plant response rating, Velvetleaf [10, 20]: 10
Wheat plant response rating ([11]; Rate 62 g/ha, Postemergence): 3
Wheat plant response rating ([11]; Rate 62 g/ha, Preemergence): 2
Wheat plant response rating ([11]; Rate 125 g/ha, Postemergence): 4
Plant response rating, Wheat ([11]; Rate 125 g/ha, Preemergence): 2
Plant response rating, Wheat ([11]; Rate 250 g/ha, Postemergence): 5
Plant response rating, Wheat [11, 20]: 2
Plant response rating, Soybean ([12]; Rate 62 g/ha, Postemergence): 8
Soybean plant response rating ([12]; Rate 62 g/ha, Preemergence): 1
Soybean plant response rating ([12]; Rate 125 g/ha, Postemergence): 9
Plant response rating, Soybean ([12]; Rate 125 g/ha, Preemergence): 5
Plant response rating, Soybean ([12]; Rate 250 g/ha, Postemergence): 9
Plant response rating, Soybean [12, 20]: 7
Plant response rating, Corn ([13]; Rate 62 g/ha, Postemergence): 3
Corn plant response rating ([13]; Rate 62 g/ha): 1
Plant response rating, Corn ([13]; Rate 125 g/ha, Postemergence): 4
Corn plant response rating ([13]; Rate 125 g/ha): 1
Plant response rating, Corn ([13]; Rate 250 g/ha, Postemergence): 5
Plant response rating, Corn [13, 20]: 1
Wild oats plant response rating ([14]; Rate 62 g/ha, Postemergence): 4
Wild oats plant response rating ([14]; Rate 62 g/ha, Preemergence): 6
Wild oats plant response rating ([14]; Rate 125 g/ha, Postemergence): 5
Plant response rating, Wild oats ([14]; Rate 125 g/ha, Preemergence): 9
Plant response rating, Wild oats ([14]; Rate 250 g/ha, Postemergence): 6
Plant response rating, Wild oats [14, 20]: 9
Plant response rating, Giant foxtail ([15]; Rate 62 g/ha, Postemergence): 8
Giant foxtail plant response rating ([15]; Rate 62 g/ha, Preemergence): 7
Giant foxtail plant response rating ([15]; Rate 125 g/ha, Postemergence): 9
Giant foxtail plant response rating ([15]; Rate 125 g/ha, Preemergence): 9
Plant response rating, Giant foxtail ([15]; Rate 250 g/ha, Postemergence): 9
Plant response rating, Giant foxtail [15, 20]: 9
